Values of other authors in patent US20160213656A1, “H[…] FORM” (Sovereign Pharmaceuticals, LLC, priority 2004, published 2016).

CN1[C@@H]2CC[C@H]1C[C@@H](OC(=O)[C@H](CO)c1ccccc1)C2 [hyoscyamine]
time for which therapeutic levels are maintained (once absorbed, blood): approximately 3.5 hours | time within which the majority of hyoscyamine is excreted in the urine unchanged (urine, unchanged drug): ≤ 12 h
